Data from patent publication US6204293A, “Inhibitors of protein isoprenyl transferases” (University of Pittsburgh, priority 1998, dated 2001).
Where a name gives a salt, the structure may show the parent alone.

target: T1, Rat brain protein farnesyltransferase (Rattus norvegicus, UniProt Q02293+Q04631); experiment: % inhibition of farnesylation, scintillation proximity assay with biotin-K Ras B fragment; assay type: biochemical; settings: Table 1; 1 × 10^-5 M
T1 construct: Rat brain protein farnesyltransferase activity is measured; from tissue; host or cells: rat brain
T1 sequence (Q02293 whole entry, the tested form may be a part, one chain of several): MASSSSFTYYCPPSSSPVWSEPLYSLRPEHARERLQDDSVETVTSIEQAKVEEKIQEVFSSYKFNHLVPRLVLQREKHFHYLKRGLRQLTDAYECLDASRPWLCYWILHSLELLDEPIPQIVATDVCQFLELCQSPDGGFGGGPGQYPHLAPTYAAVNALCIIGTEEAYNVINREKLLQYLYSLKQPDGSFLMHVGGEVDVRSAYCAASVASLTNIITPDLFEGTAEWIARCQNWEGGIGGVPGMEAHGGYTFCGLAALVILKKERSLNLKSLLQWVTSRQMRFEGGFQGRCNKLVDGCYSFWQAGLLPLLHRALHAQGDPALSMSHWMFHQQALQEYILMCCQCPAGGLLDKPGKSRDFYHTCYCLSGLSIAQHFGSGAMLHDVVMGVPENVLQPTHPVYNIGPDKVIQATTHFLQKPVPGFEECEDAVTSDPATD
Method in brief: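 Scintillation proximity read-out of farnesylation, using a biotinylated K Ras B fragment (0.1 mM final) in place of biotin-lamin. Enzyme purified from rat brain; results given as % inhibition.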

Row | SMILES | % inhibition at 1 × 10^-5 M [%]
1 | CSCC[C@H](NC(=O)c1ccc(CNc2ccc3c(c2)Cc2ccccc2-3)cc1-c1ccccc1)C(=O)O [Example 706] | 53
2 | CSCC[C@H](NC(=O)c1ccc(NC(=O)[C@@H]2C[C@@H](O)CN2)cc1-c1ccccc1)C(=O)O [Example 952] | > 50
3 | CSCC[C@H](NC(=O)c1ccc(CNc2cccc(OC(F)(F)F)c2)cc1-c1ccccc1)C(=O)O [Example 678] | 73
4 | CSCC[C@H](NC(=O)c1ccc(CNCC(C)(C)CN(C)C)cc1-c1ccccc1)C(=O)O [Example 639] | 44
5 | CSCC[C@H](NC(=O)c1ccc(CNCCC2CCCCC2)cc1-c1ccccc1)C(=O)O [Example 663] | 43
6 | CSCC[C@H](NC(=O)c1ccc(CNc2cccc(Oc3ccccc3)c2)cc1-c1ccccc1)C(=O)O [Example 686] | 48

same assay, conditions: Table 2; 1 × 10^-6 M

Row | SMILES | % inhibition at 1 × 10^-6 M [%]
7 | CSCC[C@H](NC(=O)c1ccc(CNC(CC2CCCCC2)C(O)C(O)CC(C)C)cc1-c1ccccc1C)C(=O)O (stereo partly shown) [Example 528] | 99
8 | Cc1ccccc1-c1cc(CN(C2CC2)C(C)(C)CC2CCCCC2)ccc1C(=O)N[C@@H](CCS(C)(=O)=O)C(=O)O [Example 320] | 93
9 | CCCCON(CCC1CCCCC1)Cc1ccc(C(=O)N[C@@H](CCS(C)(=O)=O)C(=O)O)c(-c2ccccc2C)c1 [Example 298] | 43
10 | CSCC[C@H](NC(=O)c1ccc(CN(Cc2ccoc2)C(C)C)cc1-c1ccccc1C)C(=O)O [Example 832] | 80
11 | CSCC[C@H](NC(=O)c1ccc(CNc2ccc(OC(F)(F)F)cc2)cc1-c1ccccc1)C(=O)O [Example 691] | 34
12 | Cc1ccccc1-c1cc(CN(C2CC2)C2(CC3CCCCC3)CCC2)ccc1C(=O)N[C@@H](CCS(C)(=O)=O)C(=O)O [Example 334] | 93
13 | CSCC[C@H](NC(=O)c1ccc(CNCCC2CCCCC2)cc1-c1ccccc1C)C(=O)O.O=C(O)C(F)(F)F [Example 607] | 96
14 | CSCC[C@H](NC(=O)c1ccc(CCCc2ccc3ccccc3c2)cc1-c1ccccc1C)C(=O)[O-].[Li+] [Example 470] | 95
15 | CSCC[C@H](NC(=O)c1ccc(NC(=O)c2cnccc2C(F)(F)F)cc1-c1ccccc1C)C(=O)O [Example 481] | 95
16 | CSCCC(CO)NCc1ccc(C(=O)N[C@@H](CCSC)C(=O)O)c(-c2ccccc2)c1 (stereo partly shown) [Example 633] | 32
17 | CCSC[C@H](CC1CCCCC1)NCc1ccc(C(=O)N(C)[C@@H](CCSC)C(=O)O)c(-c2ccccc2C)c1 [Example 765] | 76
18 | CSCC[C@H](NC(=O)c1ccc(S(=O)(=O)NCCN2CCCCC2)cc1-c1ccccc1C)C(=O)O [Example 774] | 48
19 | CSCC[C@H](NC(=O)c1ccc(CCc2ccccc2-c2ccccc2)cc1-c1ccccc1C)C(=O)[O-].[Li+] [Example 452] | 96
20 | Cc1ccccc1-c1cc(CN(C2CC2)C2(CC3CCCCC3)CCCC2)ccc1C(=O)N[C@@H](CCS(C)(=O)=O)C(=O)O [Example 346] | 98

same assay, conditions: Table 3; 1 × 10^-7 M

Row | SMILES | % inhibition at 1 × 10^-7 M [%]
21 | CSCC[C@H](NC(=O)c1ccc(CN(CCC2CCCCC2)C(C)=O)cc1-c1ccccc1C)C(=O)[O-].[Li+] [Example 609] | 95
22 | CSCC[C@H](NC(=O)c1ccc(CN[C@H](CSc2ccccc2)CC2CCCCC2)cc1-c1ccccc1C)C(=O)O [Example 623] | 96

same assay, conditions: Table 4; 1 × 10^-8 M

Row | SMILES | % inhibition at 1 × 10^-8 M [%]
23 | CSCC[C@H](NC(=O)c1ccc(CN(Cc2ccccc2)c2cccc(SC)c2)cc1-c1ccccc1C)C(=O)[O-].[Li+] [Example 851] | 82
24 | CSCC[C@H](NC(=O)c1ccc(CN(Cc2ccc3c(c2)OCO3)c2cnccn2)cc1-c1ccccc1C)C(=O)O [Example 838] | 92
25 | CSCC[C@H](NC(=O)c1ccc(CN2CCC[C@H]2COc2ccccc2)cc1-c1ccccc1C)C(=O)O [Example 991] | 69
26 | CSCC[C@H](NC(=O)c1ccc(CN(CCc2ccccc2)c2cncnc2)cc1-c1ccccc1C)C(=O)O [Example 518] | 90
27 | CSCC[C@H](NC(=O)c1ccc(CN(Cc2ccccc2)c2ccc(C(F)(F)F)cc2)cc1-c1ccccc1C)C(=O)O [Example 853] | 85

same assay, conditions: Table 6; * footnote 0.1 μM (title: 0.1 mM)

Row | SMILES | % inhibition at 0.1 μM (*) [%]
28 | CCCCC(OCc1ccc(C(=O)N[C@@H](CCSC)C(=O)[O-])c(-c2ccccc2C)c1)C1CCNCC1.[Li+] (stereo partly shown) [Example 1288] | 69

same assay, conditions: read-out: % inhibition at 0.01 μM (**); Table 6; ** footnote 0.01 μM (title: 0.01 mM)

Row | SMILES | inhibition at 0.01 µM [%]
29 | CSCC[C@H](NC(=O)c1ccc(CO[C@H](COC2CCC2)CC2CCCCC2)cc1-c1ccccc1C)C(=O)O [Example 1345] | 94

same assay, conditions: read-out: % inhibition at 0.1 μM (*); Table 6; * footnote 0.1 μM (title: 0.1 mM)

Row | SMILES | inhibition at 0.1 µM [%]
30 | CSCC[C@H](NC(=O)c1ccc(COCc2cccc(CO)c2)cc1-c1ccccc1C)C(=O)O [Example 1044, N-[4-(3-hydroxymethylbenzyloxymethyl)-2-(2-methylphenyl)benzoyl]methionine,lithium salt] | 76
31 | CSCC[C@H](NC(=O)c1ccc(COCC2CCCN2C(=O)OCc2ccccc2)cc1-c1ccccc1C)C(=O)O (stereo partly shown) [Example 1128, lithium salt] | 86
32 | CSCC[C@H](NC(=O)c1ccc(CCC(=O)OC2CCCCC2)cc1-c1ccccc1C)C(=O)O [Example 1152, N-[4-(cyclohexyloxycarbonylethyl)-2-(2-methylphenyl)benzoyl]methionine] | 96

same assay, conditions: read-out: % inhibition at 1 × 10^-6 M

Row | SMILES | inhibition at 1 µM [%]
33 | CSCC[C@H](NC(=O)c1ccc(CSC2CCCCC2)cc1-c1ccccc1C)C(=O)O [Example 550, N-[4-cyclohexylthiomethyl-2-(2-methylphenyl)benzoyl]methionine, lithium salt] | 96
34 | CSCC[C@H](NC(=O)c1ccc(COCc2ccsc2)cc1-c1ccccc1C)C(=O)O [Example 274, [4-(3-thienylmethoxymethyl)-2-(2-methylphenyl)benzoyl]methionine Lithium salt] | 94
35 | CSCC[C@H](NC(=O)c1ccc(COCc2ccc3ccccc3c2)cc1-c1ccccc1C)C(=O)O [Example 583, N-[4-(naphth-2-ylmethoxymethyl)-2-(2-methylphenyl)benzoyl]methionine lithium salt] | 98

same assay, conditions: read-out: % inhibition at 1 × 10^-6 M; Table 2; 1 × 10^-6 M

Row | SMILES | inhibition at 1 µM [%]
36 | CSCC[C@H](NC(=O)c1ccc(COCC2CCOC2)cc1-c1ccccc1)C(=O)O (stereo partly shown) [Example 287, [4-(3-tetrahydrofurylmethyloxymethyl)-2-phenylbenzoyl]methionine] | 24
37 | CSCC[C@H](NC(=O)c1ccc(OCCCOc2ccccc2)cc1-c1ccccc1C)C(=O)O [Example 566, N-[4-(3-phenoxy)propoxy-2-(2-methylphenyl)benzoyl]methionine] | 98
38 | CSCC[C@H](NC(=O)c1ccc(COCC(CC2CCCCC2)CC2CCCCC2)cc1-c1ccccc1C)C(=O)O [Example 889, lithium salt] | 95
39 | CSCC[C@H](NC(=O)c1ccc(COCCCC2CCCCC2)cc1-c1ccccc1C)C(=O)O [Example 405, 4-(3-cyclohexylpropoxy)methyl-2-(2-methylphenyl)benzoylmethionine lithium salt.] | 98
40 | CSCC[C@H](NC(=O)c1ccc(OCCCCOc2ccccc2)cc1-c1ccccc1C)C(=O)O [Example 568, N-[4-(3-phenoxy)butoxy-2-(2-methylphenyl)benzoyl]methionine. lithium salt] | 93

same assay, conditions: read-out: % inhibition at 1 × 10^-7 M

Row | SMILES | inhibition at 0.1 µM [%]
41 | CSCC[C@H](NC(=O)c1ccc(COCCc2ccc(-c3ccc(Cl)cc3)o2)cc1-c1ccccc1C)C(=O)O [Example 536, N-[4-(5-(4-chlorophenyl)furan-2-ylethoxymethyl)-2-(2-methylphenyl)benzoyl]methionine lithium salt] | 79
42 | CSCC[C@H](NC(=O)c1ccc(COCc2cccc(C)c2)cc1-c1ccccc1C)C(=O)O [Example 578, N-[4-(3-methylbenzyloxymethyl)-2-(2-methylphenyl)benzoyl]methionine lithium salt] | 90
43 | CSCC[C@H](NC(=O)c1ccc(COCc2cc3ccccc3o2)cc1-c1ccccc1C)C(=O)O [Example 533, N-[4-(benzofuran-2-ylmethoxymethyl)-2-(2-methylphenyl)benzoyl]methionine lithium salt] | 91
44 | CSCC[C@H](NC(=O)c1ccc(COCCc2ccc3ccccc3c2)cc1-c1ccccc1C)C(=O)O [Example 593, N-[4-(2-naphth-2-ylethoxymethyl)-2-(2-methylphenyl)benzoyl]methionine lithium salt] | 86

same assay, conditions: read-out: % inhibition at 1 × 10^-7 M; Table 3; 1 × 10^-7 M

Row | SMILES | inhibition at 0.1 µM [%]
45 | CSCC[C@H](NC(=O)c1ccc(COCc2ccccc2)cc1-c1ccccc1C)C(=O)NS(=O)(=O)c1ccccc1 [Example 580, Benzenesulfonyl N-2-[4-(benzyloxymethyl)-2-(2-methylphenyl)benzoyl]amino-4-methylthiobutanamide] | 90

same assay, conditions: read-out: % inhibition at 1 × 10^-8 M

Row | SMILES | inhibition at 0.01 µM [%]
46 | CSCC[C@H](NC(=O)c1ccc(COCCCC23CC4CC(CC(C4)C2)C3)cc1-c1ccccc1C)C(=O)O [Example 599, N-[4-(3-adamant-1-ylpropoxymethyl)-2-(2-methylphenyl)benzoyl]methionine lithium salt] | 86
